Assay results taken from patent publication US9487502B2, “Chemical compounds” (Syngenta Limited, priority 2013, dated 2016).

How the values were obtained:
Type in all cases: in vivo
Design in all cases: key: 5=total damage to plant; 0=no damage to plant
Setaria faberi [1] = assay: Pre-emergence herbicidal activity, SETFA; settings: 1000 g/Ha, sprayed pre-emergence, evaluated after 13 days, scale 0-5
Method: (§1) Seeds of a variety of test species were sown in standard soil in pots. After cultivation for one day (pre-emergence) under controlled conditions in a glasshouse (at 24/16° C., day/night; 14 hours light; 65% humidity), the plants were sprayed with an aqueous spray solution derived from the formulation of the technical active ingredient in acetone/water (50:50) solution containing 0.5% Tween 20 (polyoxyethelyene sorbitan monolaurate, CAS RN 9005-64-5). The test plants were then grown in a glasshouse under controlled conditions (at 24/16° C., day/night; 14 hours light; 65% humidity) and watered twice daily. After 13 days, the test was evaluated (5=total damage to plant; 0=no damage to plant).

Abutilon theophrasti [2] = assay: Pre-emergence herbicidal activity, ABUTH; settings: 1000 g/Ha, sprayed pre-emergence, evaluated after 13 days, scale 0-5
Method: as §1

Amaranthus retroflexus [3] = assay: Post-emergence herbicidal activity, AMARE; settings: 1000 g/Ha, sprayed post-emergence (8 days cultivation), evaluated after 13 days, scale 0-5
Method: (§2) Seeds of a variety of test species were sown in standard soil in pots. After 8 days cultivation (post-emergence) under controlled conditions in a glasshouse (at 24/16° C., day/night; 14 hours light; 65% humidity), the plants were sprayed with an aqueous spray solution derived from the formulation of the technical active ingredient in acetone/water (50:50) solution containing 0.5% Tween 20 (polyoxyethelyene sorbitan monolaurate, CAS RN 9005-64-5). The test plants were then grown in a glasshouse under controlled conditions (at 24/16° C., day/night; 14 hours light; 65% humidity) and watered twice daily. After 13 days, the test was evaluated (5=total damage to plant; 0=no damage to plant).

Echinochloa crus-galli [4] = assay: Post-emergence herbicidal activity, ECHCG; settings: 1000 g/Ha, sprayed post-emergence (8 days cultivation), evaluated after 13 days, scale 0-5
Method: as §2

Amaranthus retroflexus [5] = assay: Pre-emergence herbicidal activity, AMARE; settings: 1000 g/Ha, sprayed pre-emergence, evaluated after 13 days, scale 0-5
Method: as §1

Alopecurus myosuroides [6] = assay: Post-emergence herbicidal activity, ALOMY; settings: 1000 g/Ha, sprayed post-emergence (8 days cultivation), evaluated after 13 days, scale 0-5
Method: as §2

Zea mays [7] = assay: Post-emergence herbicidal activity, ZEAMX; settings: 1000 g/Ha, sprayed post-emergence (8 days cultivation), evaluated after 13 days, scale 0-5
Method: as §2

Setaria faberi [8] = assay: Post-emergence herbicidal activity, SETFA; settings: 1000 g/Ha, sprayed post-emergence (8 days cultivation), evaluated after 13 days, scale 0-5
Method: as §2

Abutilon theophrasti [9] = assay: Post-emergence herbicidal activity, ABUTH; settings: 1000 g/Ha, sprayed post-emergence (8 days cultivation), evaluated after 13 days, scale 0-5
Method: as §2

Alopecurus myosuroides [10] = assay: Pre-emergence herbicidal activity, ALOMY; settings: 1000 g/Ha, sprayed pre-emergence, evaluated after 13 days, scale 0-5
Method: as §1

Zea mays [11] = assay: Pre-emergence herbicidal activity, ZEAMX; settings: 1000 g/Ha, sprayed pre-emergence, evaluated after 13 days, scale 0-5
Method: as §1

Echinochloa crus-galli [12] = assay: Pre-emergence herbicidal activity, ECHCG; settings: 1000 g/Ha, sprayed pre-emergence, evaluated after 13 days, scale 0-5
Method: as §1

Compound | SETFA damage score, application pre-emergence (Setaria faberi [1]) | ABUTH damage score, application pre-emergence (Abutilon theophrasti [2]) | AMARE damage score, application post-emergence (Amaranthus retroflexus [3]) | ECHCG damage score, application post-emergence (Echinochloa crus-galli [4]) | AMARE damage score, application pre-emergence (Amaranthus retroflexus [5]) | ALOMY damage score, application post-emergence (Alopecurus myosuroides [6]) | ZEAMX damage score, application post-emergence (Zea mays [7]) | SETFA damage score, application post-emergence (Setaria faberi [8]) | ABUTH damage score, application post-emergence (Abutilon theophrasti [9]) | ALOMY damage score, application pre-emergence (Alopecurus myosuroides [10]) | ZEAMX damage score, application pre-emergence (Zea mays [11]) | ECHCG damage score, application pre-emergence (Echinochloa crus-galli [12])
CCN1C(=O)N(c2cc(C(C)(C)C)ncn2)C(O)C1OC (stereo not drawn) [Example A26] | 0 | 2 | 0 | 0 | 1 | 1 | 1 | 2 | 1 | 0 | 1 | 0
CCOC1C(O)N(c2cc(C(C)(C)C)ncn2)C(=O)N1CC (stereo not drawn) [Example A27] | 0 | 1 | 0 | 0 | 1 | 1 | 2 | 3 | 4 | 0 | 0 | 0
CCCOC1C(OCCC)N(c2cc(C(C)(C)C)ncn2)C(=O)N1C (stereo not drawn) [Example A28] | 0 | 0 | 0 | 0 | 0 | 0 | 0 | 0 | 0 | 0 | 0 | 0
C=CC1C(O)N(c2cc(C(C)(C)C)ncn2)C(=O)N1C (stereo not drawn) [Example A29] | 4 | 5 | 5 | 4 | 5 | 4 | 1 | 5 | 5 | 4 | 1 | 4
COCC1NC(=O)N(c2cc(C(C)(C)C)ncn2)C1O (stereo not drawn) [Example A30] | 4 | 5 | 5 | 3 | 5 | 4 | 1 | 4 | 5 | 4 | 1 | 4
CN1C(=O)N(c2cc(C(C)(C)C)ncn2)C(O)C1C(F)(F)F (stereo not drawn) [Example A31] | 4 | 2 | 1 | 3 | 2 | 4 | 1 | 5 | 5 | 3 | 0 | 3
CC1NC(=O)N(c2cc(C(C)(C)C)ncn2)C1O (stereo not drawn) [Example A32] | 1 | 3 | 2 | 2 | 2 | 3 | 1 | 2 | 5 | 1 | 0 | 1
CN1C(=O)N(c2cc(C(C)(C)C)ncn2)C(O)C1CC(F)(F)F (stereo not drawn) [Example A34] | 2 | 4 | 2 | 0 | 5 | 3 | 2 | 3 | 5 | 1 | 0 | 1
CC1C(OC(=O)Nc2ccc([N+](=O)[O-])cc2)N(c2cc(C(C)(C)C)ncn2)C(=O)N1C (stereo not drawn) [Example A36] | 4 | 5 | 5 | 5 | 5 | 5 | 5 | 5 | 5 | 4 | 3 | 4
